In patent US20030161862A1, “Bacterial growth regulators or inhibitors with the use of 1,5-d-anhydrofructose” (priority 2000, published 2003):
“Also recorded” adds a separate entry of the source.

Tests used:
Type in all cases: cell-based
[1] = system: a variety of bacteria (strains of Table 1); test: growth suppression on agar media, summary statements for all tested bacteria; conditions: for growth suppressing ability when solely used: solely used at the concentrations of the tests (sodium ascorbate 1.0%, sodium erythorbate 0.2%, chelating agents 0.2-0.5%); for effect of enhancing the growth suppressing effect of 1,5-D-anhydrofructose: co-presence with 1,5-D-anhydrofructose, no data shown
Protocol: (§1) When a variety of bacteria are cultured in agar media in the presence of 1,5-D-anhydrofructose without any of an antioxidant or a chelating agent, a minimum growth inhibitory concentration of 1,5-D-anhydrofructose is 3.0 to 5.0% for gram-negative bacteria and 1.0 to 3.0% for gram-positive bacteria. Under the circumstances, influences on growth of a variety of bacteria in the presence of 1,5-D-anhydrofructose with or without sodium ascorbate which is a typical antioxidant to be used in food and beverages were examined.
(§2) After the bacterial strains were suspended in physiological salt solutions, they were inoculated into agar media (each containing 0.25% of yeast extract, 0.5% of polypeptone, 1.0% of glucose and 1.5% of soft agar and having a pH of 6.5) with platinum loops and then cultured at 37° C. until colonies were formed. Thereafter, the bacteria were inoculated, with sterilized toothpicks, from the colonies into agar media of the above composition each of which contained 1.0% of sodium ascorbate and 1.0% of 1,5-D-anhydrofructose, and into agar media of the above composition each of which contained 1.0% of 1,5-D-anhydrofructose and no sodium ascorbate. For controls, culture media of the same composition each of which contained neither sodium ascorbate nor 1,5-D-anhydrofructose and culture media of the same composition each of which contained 1.0% of sodium ascorbate and no 1,5-D-anhydrofructose were used. Abilities of sodium ascorbate and 1,5-D-anhydrofructose to suppress/inhibit growth of the bacteria were evaluated by visually observing the colonies formed after the bacteria were cultured at 37° C. for one night.
(§3) Those cultured in the absence of the chelating agents, 1,5-D-anhydrofructose, sodium ascorbate and sodium erythorbate were taken as controls. As for an agar medium, a method for inoculating the bacteria, conditions for culturing the bacteria, and a method for evaluating a growth suppressing/inhibiting ability, they are the same as those used in the tests whose results are shown in Tables 2 and 3.

[2] = system: Bacillus subtillis IFO 3009; test: growth suppression/inhibition on agar media, colonies observed visually; conditions: agar medium pH 6.5, 37° C. one night
Text: (§4) Under the circumstances, influences on growth of a variety of bacteria in the presence of 1,5-D-anhydrofructose with or without sodium ascorbate which is a typical antioxidant to be used in food and beverages were examined.
as §2
(§5) The substances were used at concentrations shown in the legend of Table 4.
as §3

[3] = system: Enterobactor cloacae JCM 1232; test: as above; conditions: agar medium pH 6.5, 37° C. one night
Text: as §4, §2, §5, §3

[4] = system: Pseudomonas aeruginosa IFO 12689; test: as above; conditions: agar medium pH 6.5, 37° C. one night
Text: as §4, §2, §5, §3

[5] = system: Streptococcus eqinus ATCC 9812; test: as above; conditions: agar medium pH 6.5, 37° C. one night
Text: as §4, §2, §5, §3

[6] = system: Escherichia coli IFO 3301; test: as above
Protocol: as §4
as §2, with “[…])” for “1.0% of glucose and 1.5% of soft agar and having a pH of 6.5)”
as §5, §3

[7] = system: Lactobacillus casei ATCC 393; test: as above
Protocol: as §4
as §2, with “[…])” for “1.0% of glucose and 1.5% of soft agar and having a pH of 6.5)”
as §5, §3

[8] = system: Proteus vulgaris IFO 3851; test: as above
Protocol: as §4
as §2, with “[…])” for “1.0% of glucose and 1.5% of soft agar and having a pH of 6.5)”
as §5, §3

Bacillus cereus IFO 3131 = test: as above
Protocol: as §4
as §2, with “[…])” for “1.0% of glucose and 1.5% of soft agar and having a pH of 6.5)”
as §5, §3

[9] = system: Bacillus subtillis IFO 3009; test: as above; conditions: agar medium pH 7.0, 37° C. one night; BHA 0.5%, BHT 0.5%, 1,5-D-anhydrofructose 1%
[10] = system: Enterobactor cloacae JCM 1232; test: as above; conditions: agar medium pH 7.0, 37° C. one night; BHA 0.5%, BHT 0.5%, 1,5-D-anhydrofructose 1%
gram-positive bacteria = test: minimum growth inhibitory concentration / growth inhibition in agar media; conditions: 0.5%, used independently, agar medium pH 7.0
Protocol: as §1
as §2, with “[…])” for “1.0% of glucose and 1.5% of soft agar and having a pH of 6.5)”
as §5

[11] = system: Pseudomonas aeruginosa IFO 12689; test: growth suppression/inhibition on agar media, colonies observed visually; conditions: agar medium pH 7.0, 37° C. one night; BHA 0.5%, BHT 0.5%, 1,5-D-anhydrofructose 1%
[12] = system: Streptococcus eqinus ATCC 9812; test: as above; conditions: agar medium pH 7.0, 37° C. one night; BHA 0.5%, BHT 0.5%, 1,5-D-anhydrofructose 1%
[13] = 1,5-D-anhydrofructose 1%, sodium citrate 0.5%, sodium polyphosphate 0.2%, sodium malate 0.5%, sodium gluconate 0.5%, sodium tartrate 0.5%, sodium ascorbate 1%, sodium erythorbate 0.2%
[14] = sodium erythorbate 0.2%, 1,5-D-anhydrofructose 1%
[15] = agar medium pH 6.5, 37° C. one night, 1,5-D-anhydrofructose 1%, sodium citrate 0.5%, sodium polyphosphate 0.2%, sodium malate 0.5%, sodium gluconate 0.5%, sodium tartrate 0.5%, sodium ascorbate 1%, sodium erythorbate 0.2%
[16] = agar medium pH 6.5, 37° C. one night, sodium erythorbate 0.2%, 1,5-D-anhydrofructose 1%
[17] = sodium ascorbate 1%, 1,5-D-anhydrofructose 1%
[18] = agar medium pH 6.5, 37° C. one night, sodium ascorbate 1%, 1,5-D-anhydrofructose 1%
[19] = agar medium pH 7.0, 37° C. one night, BHA 0.5%, BHT 0.5%, 1,5-D-anhydrofructose 1%

Compound	condition of the colonies [2, 13]	condition of the colonies [3, 13]	condition of the colonies [4, 13]	condition of the colonies [5, 13]	condition of the colonies [6, 15]	condition of the colonies [7, 15]	condition of the colonies [8, 15]	condition of the colonies (Bacillus cereus IFO 3131; [15])	further results
O=C1O[C@H]([C@H](O)CO)C([O-])=C1O.[Na+] [sodium erythorbate]	+	+	+	+	+	+	+	+	growth suppressing ability when solely used [1]: do not inhibit growth of the bacteria; condition of the colonies [2, 14]: +; condition of the colonies [3, 14]: +; condition of the colonies [4, 14]: +; condition of the colonies [5, 14]: +; condition of the colonies [6, 16]: +; condition of the colonies [7, 16]: +; condition of the colonies [8, 16]: +; condition of the colonies (Bacillus cereus IFO 3131; [16]): +
O=C([O-])C(O)C(O)C(=O)[O-].[Na+].[Na+] (stereo not shown) [sodium tartrate]	+	+	+	+	+	+	+	+	
sodium polyphosphate	+	+	+	+	+	+	+	+	
O=C([O-])[C@H](O)[C@@H](O)[C@H](O)[C@H](O)CO.[Na+] [sodium gluconate]	+	+	+	+	+	+	+	+	
O=C1O[C@H]([C@@H](O)CO)C([O-])=C1O.[Na+] [sodium ascorbate]	+	+	+	+	+	+	+	+	growth suppressing ability when solely used [1]: does not have a growth suppressing ability against any of the bacteria; also recorded: do not inhibit growth of the bacteria; condition of the colonies [2, 17]: +; condition of the colonies [3, 17]: +; condition of the colonies [4, 17]: +; condition of the colonies [5, 17]: +; condition of the colonies [6, 18]: +; condition of the colonies [7, 18]: +; condition of the colonies [8, 18]: +; condition of the colonies (Bacillus cereus IFO 3131; [18]): +
COc1ccc(O)c(C(C)(C)C)c1 [BHA, butylhydroxyanisol]									condition of the colonies [9]: −; condition of the colonies [10]: ±; growth inhibitory effect against gram-positive bacteria (gram-positive bacteria): exhibited a growth inhibitory effect against all of the examined gram-positive bacteria; condition of the colonies [11]: +; condition of the colonies [12]: −; condition of the colonies [6, 19]: −; condition of the colonies [7, 19]: −; condition of the colonies [8, 19]: −; condition of the colonies (Bacillus cereus IFO 3131; [19]): −
Cc1cc(C(C)(C)C)c(O)c(C(C)(C)C)c1 [BHT, dibutylhydroxytoluene]									condition of the colonies [9]: −; condition of the colonies [10]: +; growth inhibitory effect against gram-positive bacteria (gram-positive bacteria): exhibited a growth inhibitory effect against all of the examined gram-positive bacteria; condition of the colonies [11]: +; condition of the colonies [12]: −; condition of the colonies [6, 19]: +; condition of the colonies [7, 19]: −; condition of the colonies [8, 19]: ±; condition of the colonies (Bacillus cereus IFO 3131; [19]): −
tocopherol									effect of enhancing the growth suppressing effect of 1,5-D-anhydrofructose [1]: exhibit the above effect
catechin									effect of enhancing the growth suppressing effect of 1,5-D-anhydrofructose [1]: exhibit the above effect
O=C([O-])CC(O)C(=O)[O-].[Na+].[Na+] (stereo not shown) [sodium malate]	+	+	+	+	+	+	+	+	
O=C([O-])CC(O)(CC(=O)[O-])C(=O)[O-].[Na+].[Na+].[Na+] [sodium citrate]	+	+	+	+	+	+	+	+	
